# Target: T1, human protease activated receptor 1 (PAR-1) (Homo sapiens, UniProt P25116)
# T1 construct: the cell stably expresses the endogenous human PAR-1 receptor; endogenous in cells; host or cells: HEK293-derived recombinant cell line; only the aequorin reporter is recombinant
# T1 sequence (P25116 22-425): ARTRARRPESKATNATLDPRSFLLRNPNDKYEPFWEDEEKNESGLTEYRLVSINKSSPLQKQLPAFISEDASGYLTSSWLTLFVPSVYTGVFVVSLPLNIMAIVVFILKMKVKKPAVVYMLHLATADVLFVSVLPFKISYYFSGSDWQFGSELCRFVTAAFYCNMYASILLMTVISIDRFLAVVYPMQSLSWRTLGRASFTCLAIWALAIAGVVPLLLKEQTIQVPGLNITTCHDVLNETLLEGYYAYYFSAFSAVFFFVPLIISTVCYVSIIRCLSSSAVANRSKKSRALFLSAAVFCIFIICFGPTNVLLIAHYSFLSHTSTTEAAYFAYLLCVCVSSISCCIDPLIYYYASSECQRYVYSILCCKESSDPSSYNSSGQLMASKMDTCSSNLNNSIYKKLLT
# Assay: Cellular functional in vitro test (aequorin luminescence in recombinant HEK293 PAR-1 test cell)
# Type: cell-based
# Conditions: PAR-1 test cell (HEK293-derived), PAR-1 agonist at EC50 concentration, aequorin light signal
# Description: Cellular Functional In Vitro Test
# A recombinant cell line is used to identify antagonists of the human protease activated receptor 1 (PAR-1) and to quantify the activity of the substances described herein. The cell is originally derived from a human embryonal kidney cell (HEK293; ATCC: American Type Culture Collection, Manassas, Va. 20108, USA). The test cell line constitutively expresses a modified form of the calcium-sensitive photoprotein aequorin which, after reconstitution with the cofactor coelenterazine, emits light when the free calcium concentration in the inner mitochondrial compartment is increased (Rizzuto R, Simpson A W, Brini M, Pozzan T.; Nature 1992, 358, 325-327). Additionally, the cell stably expresses the endogenous human PAR-1 receptor and the endogenous purinergic receptor P2Y2. The resulting PAR-1 test cell responds to stimulation of the endogenous PAR-1 or P2Y2 receptor with an intracellular release of calcium ions, which can be quantified through the resulting aequorin luminescence with a suitable luminometer (Milligan G, Marshall F, Rees S, Trends in Pharmacological Sciences 1996, 17, 235-237).
# For the testing of the substance specificity, the effect thereof after activation of the endogenous PAR-1 receptor is compared with the effect after activation of the endogenous purinergic P2Y2 receptor which utilizes the same intracellular signal path.
# Test procedure: The cells are plated out two days (48 h) before the test in culture medium (DMEM F12, supplemented with 10% FCS, 2 mM glutamine, 20 mM HEPES, 1.4 mM pyruvate, 0.1 mg/ml gentamycin, 0.15% Na bicarbonate; BioWhittaker Cat.# BE04-687Q; B-4800 Verviers, Belgium) in 384-well microtitre plates and kept in a cell incubator (96% atmospheric humidity, 5% v/v CO2, 37° C.). On the day of the test, the culture medium is replaced by a tyrode solution (in mM: 140 sodium chloride, 5 potassium chloride, 1 magnesium chloride, 2 calcium chloride, 20 glucose, 20 HEPES), which additionally contains the cofactor coelenterazine (25 μM) and glutathione (4 mM), and the microtitre plate is then incubated for a further 3-4 hours. The test substances are then pipetted onto the microtitre plate, and 5 minutes after the transfer of the test substances into the wells of the microtitre plate the plate is transferred into the luminometer, a PAR-1 agonist concentration which corresponds to EC50 is added and the resulting light signal is immediately measured in the luminometer. To distinguish an antagonist substance action from a toxic action, the endogenous purinergic receptor is immediately subsequently activated with agonist (ATP, final concentration 10 μM) and the resulting light signal is measured.
row,SMILES,IC50 [nM]
1,"CCc1ccc(C2CC(c3nc(OCCOC)no3)CN(C(=O)N3CCS(=O)(=O)CC3)C2)cc1 (single isomer, unassigned) [Example 63, (1,1-Dioxidothiomorpholin-4-yl){3-(4-ethylphenyl)-5-[3-(2-methoxyethoxy)-1,2,4-oxadiazol-5-yl]-piperidin-1-yl}methanone]",20.6
2,"CCOc1noc(C2CC(c3ccc(CC(F)(F)F)c(F)c3)CN(C(=O)N3CC[S+]([O-])CC3)C2)n1 (single isomer, unassigned) [Example 80, {3-(3-Ethoxy-1,2,4-oxadiazol-5-yl)-5-[3-fluoro-4-(2,2,2-trifluoroethyl)phenyl]piperidin-1-yl}(1-oxidothiomorpholin-4-yl)methanone]",5.1
3,"CCOc1noc(C2CC(c3ccc(CC(F)(F)F)cc3)CN(C(=O)N3CCS(=O)(=O)CC3)C2)n1 (racemic) [Example 67, (1,1-Dioxidothiomorpholin-4-yl){3-(3-ethoxy-1,2,4-oxadiazol-5-yl)-5-[4-(2,2,2-trifluoroethyl)-phenyl]piperidin-1-yl}methanone]",12
4,"CCN(CC)c1noc(C2CC(c3ccc(C(F)(F)F)cc3)CN(C(=O)N3CCOCC3)C2)n1 (single isomer, unassigned) [Example 6, {3-[3-(Diethylamino)-1,2,4-oxadiazol-5-yl]-5-[4-(trifluoromethyl)phenyl]piperidin-1-yl}-(morpholin-4-yl)methanone]",8.7
5,"CCOc1noc(C2CC(c3ccc(CC)c(F)c3)CN(C(=O)N3CCS(=O)(=O)CC3)C2)n1 (racemic) [Example 101, (1,1-Dioxidothiomorpholin-4-yl)[3-(3-ethoxy-1,2,4-oxadiazol-5-yl)-5-(4-ethyl-3-fluorophenyl)-piperidin-1-yl]methanone]",6.3
6,"CCOc1noc(C2CC(c3ccc(CC)cc3)CN(C(=O)N3CC(O)C3)C2)n1 (racemic) [Example 35, [3-(3-Ethoxy-1,2,4-oxadiazol-5-yl)-5-(4-ethylphenyl)piperidin-1-yl](3-hydroxyazetidin-1-yl)methanone]",35.3
7,"CCOc1noc(C2CC(c3ccc(CC(F)(F)F)cc3)CN(C(=O)N3CC[S+]([O-])CC3)C2)n1 (single isomer, unassigned) [Example 66, {3-(3-Ethoxy-1,2,4-oxadiazol-5-yl)-5-[4-(2,2,2-trifluoroethyl)phenyl]piperidin-1-yl}(1-oxidothio-morpholin-4-yl)methanone]",64.5
8,"CCOc1noc(C2CC(c3ccc(CC(F)(F)F)cc3)CN(C(=O)N3CCS(=O)(=O)CC3)C2)n1 (single isomer, unassigned) [Example 69, (1,1-Dioxidothiomorpholin-4-yl){3-(3-ethoxy-1,2,4-oxadiazol-5-yl)-5-[4-(2,2,2-trifluoroethyl)-phenyl]piperidin-1-yl}methanone]",21.1
9,"O=C(N1CCOCC1)N1CC(c2ccc(C(F)(F)F)cc2)CC(c2nc(NC3CC3)no2)C1 (racemic) [Example 9, {3-[3-(Cyclopropylamino)-1,2,4-oxadiazol-5-yl]-5-[4-(trifluoromethyl)phenyl]piperidin-1-yl}-(morpholin-4-yl)methanone]",14.3
10,"CC(C)Oc1noc(C2CC(c3ccc(OC(F)(F)F)cc3)CN(C(=O)N3CCSCC3)C2)n1 (racemic) [Example 33, {3-(3-Isopropoxy-1,2,4-oxadiazol-5-yl)-5-[4-(trifluoromethoxy)phenyl]piperidin-1-yl}(thiomorpholin-4-yl)methanone]",1.7
11,"CCN(CCO)c1noc(C2CC(c3ccc(C(F)(F)F)cc3)CN(C(=O)N3CCOCC3)C2)n1 (racemic) [Example 16, (3-{3-[Ethyl(2-hydroxyethyl)amino]-1,2,4-oxadiazol-5-yl}-5-[4-(trifluoromethyl)phenyl]piperidin-1-yl)(morpholin-4-yl)methanone]",69.4
